Results: the NIST ThermoML archive (doi:10.1016/j.jct.2012.11.020)
± gives the expanded uncertainty stated by the source.

Key:
[1] = 100 kPa, Liquid; for viscosity: Cone and plate viscometry; for mass density: Vibrating tube method; for electrical conductivity: Alternating current cell with electrodes
[2] = xn = mol fraction of the nth substance listed; conditions: 100 kPa, Liquid, x2 = 0; for viscosity: Cone and plate viscometry; for mass density: Vibrating tube method

C1CC[NH2+]C1.O=[N+]([O-])[O-] [pyrrolidinium nitrate]
[1]
Conditions | electrical conductivity [S/m] | mass density [kg/m3] | viscosity [mPa·s]
283.15 K | – | 1235 ± 2.8 | 58.87
284.15 K | 2.93 ± 0.23 | – | –
293.15 K | 3.71 ± 0.3 | 1228 ± 2.7 | 40.29
298.15 K | 4.22 ± 0.34 | – | –
303.15 K | – | 1220.4 ± 2.7 | 28.81
304.15 K | 4.94 ± 0.4 | – | –
313.15 K | 5.97 ± 0.48 | 1213.1 ± 2.7 | 20.91
323.15 K | 7.17 ± 0.57 | 1205.5 ± 2.7 | 16.7
333.15 K | 8.51 ± 0.68 | 1197.2 ± 2.7 | 13.3
343.15 K | – | 1190.2 ± 2.6 | 11.17
344.95 K | 9.3 ± 0.74 | – | –
353.15 K | – | 1182 ± 2.6 | 9.28
353.65 K | 10.5 ± 0.84 | – | –

CC1COC(=O)O1 (configuration not stated) [4-methyl-1,3-dioxolan-2-one]
[1]
Conditions | mass density [kg/m3] | viscosity [mPa·s]
283.15 K | 1216.3 ± 2.4 | 4.25
293.15 K | 1205.2 ± 2.4 | 2.96
303.15 K | 1194.5 ± 2.4 | 2.2
313.15 K | 1183.9 ± 2.4 | 1.8
323.15 K | 1173.4 ± 2.3 | 1.56
333.15 K | 1162.9 ± 2.3 | 1.4
343.15 K | 1152.3 ± 2.3 | 1.26
353.15 K | 1141.6 ± 2.3 | 1.15

CC1COC(=O)O1 (configuration not stated) [4-methyl-1,3-dioxolan-2-one] + C1CC[NH2+]C1.O=[N+]([O-])[O-]
[2]
Conditions | mass density [kg/m3] | viscosity [mPa·s]
283.15 K | 1216.3 ± 2.4 | 4.25
293.15 K | 1205.2 ± 2.4 | 2.96
303.15 K | 1194.5 ± 2.4 | 2.2
313.15 K | 1183.9 ± 2.4 | 1.8
323.15 K | 1173.4 ± 2.3 | 1.56
333.15 K | 1162.9 ± 2.3 | 1.4
343.15 K | 1152.3 ± 2.3 | 1.26
353.15 K | 1141.6 ± 2.3 | 1.15
